In the NIST ThermoML archive (doi:10.1021/je700261b):

Test: xn = mol fraction of the nth substance listed
Details: Liquid

CCCCO [butan-1-ol] + O=C=O
Details | mass density [kg/m3]
333.08 K, 16957 kPa, x2 = 0.1842 | 803.2
333.08 K, 18103 kPa, x2 = 0.1842 | 804.27
333.08 K, 19053 kPa, x2 = 0.1842 | 805.14
333.08 K, 20044 kPa, x2 = 0.1842 | 806.03
333.08 K, 21090 kPa, x2 = 0.1842 | 807.01
333.08 K, 21974 kPa, x2 = 0.1842 | 807.82
333.08 K, 22960 kPa, x2 = 0.1842 | 808.7
333.08 K, 24014 kPa, x2 = 0.1842 | 809.64
333.08 K, 25045 kPa, x2 = 0.1842 | 810.58
342.85 K, 1014 kPa, x2 = 0.0251 | 772.92
342.85 K, 2013 kPa, x2 = 0.0251 | 773.93
342.85 K, 2982 kPa, x2 = 0.0251 | 774.9
342.85 K, 4039 kPa, x2 = 0.0251 | 775.94
342.85 K, 5057 kPa, x2 = 0.0251 | 776.91
342.85 K, 5993 kPa, x2 = 0.0251 | 777.79
342.85 K, 7067 kPa, x2 = 0.0251 | 778.78
342.85 K, 8025 kPa, x2 = 0.0251 | 779.69
342.85 K, 9013 kPa, x2 = 0.0251 | 780.6
342.85 K, 10012 kPa, x2 = 0.0251 | 781.51
342.85 K, 11010 kPa, x2 = 0.0251 | 782.43
342.85 K, 11969 kPa, x2 = 0.0251 | 783.27
342.85 K, 13080 kPa, x2 = 0.0251 | 784.23
342.85 K, 13925 kPa, x2 = 0.0251 | 784.95
342.85 K, 15055 kPa, x2 = 0.0251 | 785.93
342.85 K, 16002 kPa, x2 = 0.0251 | 786.72
342.85 K, 17016 kPa, x2 = 0.0251 | 787.57
342.85 K, 18007 kPa, x2 = 0.0251 | 788.39
342.85 K, 19019 kPa, x2 = 0.0251 | 789.22
342.85 K, 20027 kPa, x2 = 0.0251 | 790.06
342.85 K, 20996 kPa, x2 = 0.0251 | 790.82
342.85 K, 22019 kPa, x2 = 0.0251 | 791.65
342.85 K, 23034 kPa, x2 = 0.0251 | 792.46
342.85 K, 24052 kPa, x2 = 0.0251 | 793.28
342.85 K, 25090 kPa, x2 = 0.0251 | 794.07
342.87 K, 15510 kPa, x2 = 0.9698 | 598.32
342.87 K, 16022 kPa, x2 = 0.9698 | 613.97
342.87 K, 17033 kPa, x2 = 0.9698 | 640.58
342.87 K, 17988 kPa, x2 = 0.9698 | 661.78
342.87 K, 19001 kPa, x2 = 0.9698 | 681.25
342.87 K, 20036 kPa, x2 = 0.9698 | 698.56
342.87 K, 21044 kPa, x2 = 0.9698 | 713.53
342.87 K, 22014 kPa, x2 = 0.9698 | 726.53
342.87 K, 23003 kPa, x2 = 0.9698 | 738.6
342.87 K, 24019 kPa, x2 = 0.9698 | 749.89
342.87 K, 24944 kPa, x2 = 0.9698 | 759.52
342.88 K, 1975 kPa, x2 = 0.0857 | 776.2
342.88 K, 2955 kPa, x2 = 0.0857 | 777.28
342.88 K, 4033 kPa, x2 = 0.0857 | 778.42
342.88 K, 5015 kPa, x2 = 0.0857 | 779.45
342.88 K, 5957 kPa, x2 = 0.0857 | 780.4
342.88 K, 7027 kPa, x2 = 0.0857 | 781.49
342.88 K, 7999 kPa, x2 = 0.0857 | 782.5
342.88 K, 9007 kPa, x2 = 0.0857 | 783.51
342.88 K, 10003 kPa, x2 = 0.0857 | 784.47
342.88 K, 11007 kPa, x2 = 0.0857 | 785.43
342.88 K, 11951 kPa, x2 = 0.0857 | 786.34
342.88 K, 13010 kPa, x2 = 0.0857 | 787.34
342.88 K, 14012 kPa, x2 = 0.0857 | 788.24
342.88 K, 15065 kPa, x2 = 0.0857 | 789.2
342.88 K, 15994 kPa, x2 = 0.0857 | 790.07
342.88 K, 17007 kPa, x2 = 0.0857 | 790.98
342.88 K, 17999 kPa, x2 = 0.0857 | 791.83
342.88 K, 18990 kPa, x2 = 0.0857 | 792.72
342.88 K, 20029 kPa, x2 = 0.0857 | 793.58
342.88 K, 20993 kPa, x2 = 0.0857 | 794.43
342.88 K, 22004 kPa, x2 = 0.0857 | 795.26
342.88 K, 23039 kPa, x2 = 0.0857 | 796.17
342.88 K, 24019 kPa, x2 = 0.0857 | 796.97
342.88 K, 25064 kPa, x2 = 0.0857 | 797.88
342.92 K, 12062 kPa, x2 = 0.4972 | 795.68
342.92 K, 13090 kPa, x2 = 0.4972 | 797.59
342.92 K, 14017 kPa, x2 = 0.4972 | 799.27
342.92 K, 15047 kPa, x2 = 0.4972 | 801.1
342.92 K, 16026 kPa, x2 = 0.4972 | 802.79
342.92 K, 17041 kPa, x2 = 0.4972 | 804.51
342.92 K, 18053 kPa, x2 = 0.4972 | 806.18
342.92 K, 19028 kPa, x2 = 0.4972 | 807.77
342.92 K, 20046 kPa, x2 = 0.4972 | 809.4
342.92 K, 21062 kPa, x2 = 0.4972 | 810.98
342.92 K, 22043 kPa, x2 = 0.4972 | 812.48
342.92 K, 22996 kPa, x2 = 0.4972 | 813.92
342.92 K, 24003 kPa, x2 = 0.4972 | 815.43
342.92 K, 25073 kPa, x2 = 0.4972 | 816.99
